Columns and labels:
Assay in all cases: Test D preemergence
Type in all cases: in vivo
Settings in all cases: scale 0 to 100
[1] = test system: Russian thistle (Salsola kali)
Procedure, shortened: (§1)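 Assessment is visual, relative to untreated controls, 14 to 21 days after application, with 100 meaning complete control. Seeds in silt loam receive preemergence spray; seedlings at the 1- to 4-leaf stage receive postemergence spray.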

[2] = test system: bluegrass (annual bluegrass, Poa annua)
Procedure, shortened: as §1

[3] = test system: canarygrass (Phalaris minor)
Procedure, shortened: as §1

[4] = test system: chamomile (scentless chamomile, Matricaria inodora)
Procedure, shortened: as §1

[5] = test system: chickweed (common chickweed, Stellaria media)
Procedure, shortened: as §1

[6] = test system: deadnettle (henbit deadnettle, Lamium amplexicaule)
Procedure, shortened: as §1

[7] = test system: downy bromegrass (Bromus tectorum)
Procedure, shortened: as §1

[8] = test system: field poppy (Papaver rhoeas)
Procedure, shortened: as §1

[9] = test system: field violet (Viola arvensis)
Procedure, shortened: as §1

[10] = test system: galium (catchweed bedstraw, Galium aparine)
Procedure, shortened: as §1

[11] = test system: oilseed rape (Brassica napus)
Procedure, shortened: as §1

[12] = test system: speedwell (bird's-eye speedwell, Veronica persica)
Procedure, shortened: as §1

[13] = test system: spring barley (Hordeum vulgare)
Procedure, shortened: as §1

[14] = test system: wild buckwheat (Polygonum convolvulus)
Procedure, shortened: as §1

[15] = test system: wild mustard (Sinapis arvensis)
Procedure, shortened: as §1

[16] = test system: windgrass (Apera spica-venti)
Procedure, shortened: as §1

[17] = test system: winter barley (Hordeum vulgare)
Procedure, shortened: as §1

[18] = test system: winter wheat (Triticum aestivum)
Procedure, shortened: as §1

## Fc1cnc(Oc2c(Br)cccc2Oc2ncc(Cl)cn2)nc1 [Compound 22]
[1]; 16 g ai/ha
  Plant response rating, Russian Thistle: 0
[1]; 31 g ai/ha
  Plant response rating, Russian Thistle: 0
[1]; 62 g ai/ha
  Plant response rating, Russian Thistle: 5
[1]; 125 g ai/ha
  Plant response rating, Russian Thistle: 5
[2]; 16 g ai/ha
  Plant response rating, Bluegrass: 0
[2]; 31 g ai/ha
  Plant response rating, Bluegrass: 20
[2]; 62 g ai/ha
  Plant response rating, Bluegrass: 60
[2]; 125 g ai/ha
  Plant response rating, Bluegrass: 90
[3]; 16 g ai/ha
  Plant response rating, Canarygrass: 10
[3]; 31 g ai/ha
  Plant response rating, Canarygrass: 25
[3]; 62 g ai/ha
  Plant response rating, Canarygrass: 35
[3]; 125 g ai/ha
  Plant response rating, Canarygrass: 55
[4]; 16 g ai/ha
  Plant response rating, Chamomile: 30
[4]; 31 g ai/ha
  Plant response rating, Chamomile: 40
[4]; 62 g ai/ha
  Plant response rating, Chamomile: 55
[4]; 125 g ai/ha
  Plant response rating, Chamomile: 100
[5]; 16 g ai/ha
  Plant response rating, Chickweed: 10
[5]; 31 g ai/ha
  Plant response rating, Chickweed: 25
[5]; 62 g ai/ha
  Plant response rating, Chickweed: 100
[5]; 125 g ai/ha
  Plant response rating, Chickweed: 100
[6]; 16 g ai/ha
  Plant response rating, Deadnettle: 20
[6]; 31 g ai/ha
  Plant response rating, Deadnettle: 60
[6]; 62 g ai/ha
  Plant response rating, Deadnettle: 85
[6]; 125 g ai/ha
  Plant response rating, Deadnettle: 100
[7]; 16 g ai/ha
  Plant response rating, Bromegrass, Downy: 15
[7]; 31 g ai/ha
  Plant response rating, Bromegrass, Downy: 25
[7]; 62 g ai/ha
  Plant response rating, Bromegrass, Downy: 30
[7]; 125 g ai/ha
  Plant response rating, Bromegrass, Downy: 35
[8]; 16 g ai/ha
  Plant response rating, Field Poppy: 65
[8]; 31 g ai/ha
  Plant response rating, Field Poppy: 95
[8]; 62 g ai/ha
  Plant response rating, Field Poppy: 100
[8]; 125 g ai/ha
  Plant response rating, Field Poppy: 100
[9]; 16 g ai/ha
  Plant response rating, Field Violet: 15
[9]; 31 g ai/ha
  Plant response rating, Field Violet: 75
[9]; 62 g ai/ha
  Plant response rating, Field Violet: 95
[9]; 125 g ai/ha
  Plant response rating, Field Violet: 95
[10]; 16 g ai/ha
  Plant response rating, Galium: 60
[10]; 31 g ai/ha
  Plant response rating, Galium: 65
[10]; 62 g ai/ha
  Plant response rating, Galium: 75
[10]; 125 g ai/ha
  Plant response rating, Galium: 100
[11]; 16 g ai/ha
  Plant response rating, Oilseed Rape: 30
[11]; 31 g ai/ha
  Plant response rating, Oilseed Rape: 40
[11]; 62 g ai/ha
  Plant response rating, Oilseed Rape: 70
[11]; 125 g ai/ha
  Plant response rating, Oilseed Rape: 90
[12]; 16 g ai/ha
  Plant response rating, Speedwell: 85
[12]; 31 g ai/ha
  Plant response rating, Speedwell: 90
[12]; 62 g ai/ha
  Plant response rating, Speedwell: 100
[12]; 125 g ai/ha
  Plant response rating, Speedwell: 100
[13]; 16 g ai/ha
  Plant response rating, Barley, Spring: 0
[13]; 31 g ai/ha
  Plant response rating, Barley, Spring: 5
[13]; 62 g ai/ha
  Plant response rating, Barley, Spring: 15
[13]; 125 g ai/ha
  Plant response rating, Barley, Spring: 65
[14]; 16 g ai/ha
  Plant response rating, Buckwheat, Wild: 10
[14]; 31 g ai/ha
  Plant response rating, Buckwheat, Wild: 10
[14]; 62 g ai/ha
  Plant response rating, Buckwheat, Wild: 15
[14]; 125 g ai/ha
  Plant response rating, Buckwheat, Wild: 85
[15]; 16 g ai/ha
  Plant response rating, Mustard, Wild: 20
[15]; 31 g ai/ha
  Plant response rating, Mustard, Wild: 30
[15]; 62 g ai/ha
  Plant response rating, Mustard, Wild: 100
[15]; 125 g ai/ha
  Plant response rating, Mustard, Wild: 100
[16]; 16 g ai/ha
  Plant response rating, Windgrass: 15
[16]; 31 g ai/ha
  Plant response rating, Windgrass: 20
[16]; 62 g ai/ha
  Plant response rating, Windgrass: 25
[16]; 125 g ai/ha
  Plant response rating, Windgrass: 70
[17]; 16 g ai/ha
  Plant response rating, Barley, Winter: 0
[17]; 31 g ai/ha
  Plant response rating, Barley, Winter: 0
[17]; 62 g ai/ha
  Plant response rating, Barley, Winter: 5
[17]; 125 g ai/ha
  Plant response rating, Barley, Winter: 40
[18]; 16 g ai/ha
  Plant response rating, Wheat, Winter: 0
[18]; 31 g ai/ha
  Plant response rating, Wheat, Winter: 0
[18]; 62 g ai/ha
  Plant response rating, Wheat, Winter: 5
[18]; 125 g ai/ha
  Plant response rating, Wheat, Winter: 40

## Fc1cnc(Oc2c(F)cccc2Oc2ncc(Cl)cn2)nc1 [Compound 23]
[1]; 16 g ai/ha
  Plant response rating, Russian Thistle: 0
[1]; 31 g ai/ha
  Plant response rating, Russian Thistle: 0
[1]; 62 g ai/ha
  Plant response rating, Russian Thistle: 5
[1]; 125 g ai/ha
  Plant response rating, Russian Thistle: 5
[2]; 16 g ai/ha
  Plant response rating, Bluegrass: 20
[2]; 31 g ai/ha
  Plant response rating, Bluegrass: 65
[2]; 62 g ai/ha
  Plant response rating, Bluegrass: 80
[2]; 125 g ai/ha
  Plant response rating, Bluegrass: 100
[3]; 16 g ai/ha
  Plant response rating, Canarygrass: 60
[3]; 31 g ai/ha
  Plant response rating, Canarygrass: 65
[3]; 62 g ai/ha
  Plant response rating, Canarygrass: 80
[3]; 125 g ai/ha
  Plant response rating, Canarygrass: 85
[4]; 16 g ai/ha
  Plant response rating, Chamomile: 20
[4]; 31 g ai/ha
  Plant response rating, Chamomile: 75
[4]; 62 g ai/ha
  Plant response rating, Chamomile: 75
[4]; 125 g ai/ha
  Plant response rating, Chamomile: 100
[5]; 16 g ai/ha
  Plant response rating, Chickweed: 50
[5]; 31 g ai/ha
  Plant response rating, Chickweed: 100
[5]; 62 g ai/ha
  Plant response rating, Chickweed: 100
[5]; 125 g ai/ha
  Plant response rating, Chickweed: 100
[6]; 16 g ai/ha
  Plant response rating, Deadnettle: 15
[6]; 31 g ai/ha
  Plant response rating, Deadnettle: 65
[6]; 62 g ai/ha
  Plant response rating, Deadnettle: 80
[6]; 125 g ai/ha
  Plant response rating, Deadnettle: 95
[7]; 16 g ai/ha
  Plant response rating, Bromegrass, Downy: 5
[7]; 31 g ai/ha
  Plant response rating, Bromegrass, Downy: 25
[7]; 62 g ai/ha
  Plant response rating, Bromegrass, Downy: 35
[7]; 125 g ai/ha
  Plant response rating, Bromegrass, Downy: 70
[8]; 16 g ai/ha
  Plant response rating, Field Poppy: 65
[8]; 31 g ai/ha
  Plant response rating, Field Poppy: 80
[8]; 62 g ai/ha
  Plant response rating, Field Poppy: 90
[8]; 125 g ai/ha
  Plant response rating, Field Poppy: 98
[9]; 16 g ai/ha
  Plant response rating, Field Violet: 25
[9]; 31 g ai/ha
  Plant response rating, Field Violet: 25
[9]; 62 g ai/ha
  Plant response rating, Field Violet: 95
[9]; 125 g ai/ha
  Plant response rating, Field Violet: 100
[10]; 16 g ai/ha
  Plant response rating, Galium: 70
[10]; 31 g ai/ha
  Plant response rating, Galium: 75
[10]; 62 g ai/ha
  Plant response rating, Galium: 95
[10]; 125 g ai/ha
  Plant response rating, Galium: 100
[11]; 16 g ai/ha
  Plant response rating, Oilseed Rape: 80
[11]; 31 g ai/ha
  Plant response rating, Oilseed Rape: 85
[11]; 62 g ai/ha
  Plant response rating, Oilseed Rape: 98
[11]; 125 g ai/ha
  Plant response rating, Oilseed Rape: 100
[12]; 16 g ai/ha
  Plant response rating, Speedwell: 100
[12]; 31 g ai/ha
  Plant response rating, Speedwell: 100
[12]; 62 g ai/ha
  Plant response rating, Speedwell: 100
[12]; 125 g ai/ha
  Plant response rating, Speedwell: 100
[13]; 16 g ai/ha
  Plant response rating, Barley, Spring: 0
[13]; 31 g ai/ha
  Plant response rating, Barley, Spring: 5
[13]; 62 g ai/ha
  Plant response rating, Barley, Spring: 30
[13]; 125 g ai/ha
  Plant response rating, Barley, Spring: 75
[14]; 16 g ai/ha
  Plant response rating, Buckwheat, Wild: 40
[14]; 31 g ai/ha
  Plant response rating, Buckwheat, Wild: 50
[14]; 62 g ai/ha
  Plant response rating, Buckwheat, Wild: 100
[14]; 125 g ai/ha
  Plant response rating, Buckwheat, Wild: 100
[15]; 16 g ai/ha
  Plant response rating, Mustard, Wild: 98
[15]; 31 g ai/ha
  Plant response rating, Mustard, Wild: 100
[15]; 62 g ai/ha
  Plant response rating, Mustard, Wild: 100
[15]; 125 g ai/ha
  Plant response rating, Mustard, Wild: 100
[16]; 16 g ai/ha
  Plant response rating, Windgrass: 20
[16]; 31 g ai/ha
  Plant response rating, Windgrass: 75
[16]; 62 g ai/ha
  Plant response rating, Windgrass: 98
[16]; 125 g ai/ha
  Plant response rating, Windgrass: 100
[17]; 16 g ai/ha
  Plant response rating, Barley, Winter: 0
[17]; 31 g ai/ha
  Plant response rating, Barley, Winter: 0
[17]; 62 g ai/ha
  Plant response rating, Barley, Winter: 30
[17]; 125 g ai/ha
  Plant response rating, Barley, Winter: 70
[18]; 16 g ai/ha
  Plant response rating, Wheat, Winter: 0
[18]; 31 g ai/ha
  Plant response rating, Wheat, Winter: 5
[18]; 62 g ai/ha
  Plant response rating, Wheat, Winter: 10
[18]; 125 g ai/ha
  Plant response rating, Wheat, Winter: 70

Source: patent US20170190671A1, “BIS(ARYL)CATECHOL DERIVATIVES AS HERBICIDES” (E I DU PONT DE NEMOURS AND COMPANY, priority 2014, published 2017)
